Consider one molecule from patent publication US20200255828A1, “METHODS AND COMPOSITIONS FOR ALTERING FUNCTION AND STRUCTURE OF CHROMATIN LOOPS AND/OR DOMAINS” (THE BROAD INSTITUTE, INC., priority 2017, published 2020).

The assay concerns HCT-116 RAD21-mAC cells. The assay can be described thus: 3D-APA of higher-order Hi-C contacts between cohesin-independent loop anchors. Format: cell-based, human. The note with it: auxin-treated data, 131 intrachromosomal trios; none in untreated. An excerpt:
To probe this question, Applicants examined concatemers—that is, Hi-C reads which bring together 3 or more loci, and indicate that the loci in question were simultaneously co-located in a particular cell during the Hi-C experiment. Applicants identified 57 million unique “triples,” which bring together 3 loci; 32 million unique quadruples, and 130 thousand quintuples (FIG. 5B, see Methods). Instead of a 2-dimensional heatmap, concatemers are naturally represented as an n-dimensional matrix, or tensor, showing the collision frequency (i.e. the frequency of simultaneous physical contact) between any set of n loci in the genome (FIG. 5C). Hubs involving n loci manifest in the n-dimensional contact tensor as peaks in collision frequency with respect to the local n-dimensional neighborhood. […]
Analysis of higher order contacts. […] The Juicer pipeline (Durand, et al, 2016b) separately outputs abnormal chimeric read pairs (i.e. read pairs that map to more than 2 loci). Applicants combined all of the data from untreated RAD21-mAC cells and all our data from treated RAD21-mAC cells (unsynchronized and synchronized/arrested), parsed the chimeric abnormal reads and deduped them (using the same deduping procedure used in Juicer, only applied to three, four or five positions, rather than just two), retaining unique reads that mapped to three or more positions with MAPQ>=10. […]

Turning to `O=C(O)Cc1c[nH]c2ccccc12` [auxin, indole-3-acetic acid], the “collisions in the center voxel of the 3D APA cube (three cohesin-independent loop anchors)” value is given as 11.
